Ends that are not written are not given here.
Tests used:
[1] = Non compartmental pharmacokinetic analysis of LA in porcine intestinal fluid; format: in vivo; details: pig intestinal fluid, oral LA 1 mg total (~0.05 mg/kg)
Method: Non compartmental pharmacokinetic analyses of LA in the intestinal fluid was performed using commercially available software (Phoenix® WinNonlin® Software version 8.3, Certara, Princeton, NJ). The pharmacokinetic parameters estimated for LA in intestinal fluid after oral administration included the elimination rate constant (λz), elimination half life (HLλz), the area under the curve from time zero to the last time point (AUClast), the maximum concentration (Cmax), time to maximum concentration (Tmax), the mean drug residence time from time zero to the last time point (MRTlast), which were calculated using the linear log trapezoidal method.

[2] = cited from earlier work
Description: In vitro dissolution is the standard method used in the pharmaceutical industry to assess drug release from solid oral dosage forms and to predict the release profile in the GI tract by simulating the GI environment with appropriate buffer media. In vivo/ in vitro correlation analysis (IVIVC) was specifically designed to assess whether in vitro predictions match in vivo drug behavior. However, in this study IVIVC could not be performed for several reasons, including the lack of an injectable formulation, an immediate release and other multiple other extended release formulations and the ...

[3] = LA concentration in porcine intestinal fluid collected via in vivo ultrafiltration probes, UPLC-MS/MS; details: pig; for level at time molar at 1 h / level at time molar at 2 h / level at time molar at 3 h / level at time molar at 4 h: female, Yorkshire cross, po, 1 mg; for Concentration of LA fragments in duodenal and jejunal samples: oral 1 mg LA, fragments detected, all concentrations below the LLOQ, UPLC-MS/MS;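 as to all read-outs here: pigs aged 6–8 weeks and weighing 15–20 kg, intestinal fluid sampled through surgically implanted ultrafiltration probes whose placement was checked post mortem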
Method: Three female Yorkshire cross pigs weighing between 15–20 kg and 6–8 weeks of age were used in this study. […] All pigs were considered healthy on the basis of physical exams, which were performed upon delivery and after a minimum of 3 days’ acclimatization. The animals were housed individually in stainless steel pens to allow comprehensive observation of changes to the animal’s behavior, feed consumption, and volume or character of excreta. While housed in pens, each animal had free access to water, and commercial pig pelleted feed was provided twice daily.
Pigs were sedated with injection of ketamine (11 mg/kg, IM; Vedco) and xylazine (0.25 mg/kg, IM; Akorn Animal Health). Intravenous administration of buprenorphine (0.04 mg/kg; Par Pharmaceutical) and intramuscular administration of flunixin meglumine (2.2 mg/kg; Norbrook) and ceftiofur sodium (Excede for Swine, 8mg/kg; Med Pharmex Inc) were given for analgesia and infection prophylaxis, respectively. Pigs were intubated and maintained under general anesthesia using isoflurane delivered in 100% oxygen during the surgery. The abdomen was approached via midline laparotomy, and the pylorus was located. The duodenum was traced from the pylorus to an accessible point on the left side of the abdomen approximately 15–18 cm distal to the pylorus (Fig 2). The intestine was lifted and an incision was made using a #11 scalpel blade, piercing the anti-mesenteric intestinal wall into the lumen. A guide needle was used to introduce the UF probe into the duodenum threading the probe proximally toward the pylorus. The guide needle was subsequently removed, taking care to leave the UF probe in place [20]. The three loops of the UF probe remained within the intestine, and each probe was secured in the intestine by using a Halstead pattern suture around the probe, followed by a finger trap suture pattern using 3–0 Vicryl (Henry Schein). The nonpermeable connection tubing of the UF probe was extended to the lateral body wall, paramedian to the incision, and retrieved through a guide needle in order to exteriorize the tubing. The tubing was secured outside the animal by suturing the tubing to the skin using 3–0 nylon suture (Fig 3). The tubing was attached to a needle inserted into a vacutainer for sample collection during the remainder of the experiment. A second UF probe was placed into the jejunum 20 cm distal to the duodenum using the same methodology (Fig 2). The abdomen was closed in a routine manner. The pigs were monitored for assessment of pain each day of the experiment and given buprenorphine as an analgesic medication if necessary.
The formulated beads were weighed and placed into gelatin capsules prior to dosing.

[4] = distal duodenum, mean of 3 dose replicates
[5] = proximal jejunum, mean of 3 dose replicates
[6] = intestinal fluid (distal duodenum)
[7] = intestinal fluid (proximal jejunum)
[8] = intestinal fluid, distal duodenum
[9] = intestinal fluid, proximal jejunum

For GGVLVQPG [LA, Larazotide acetate], the “MRTlast, mean residence time from time zero to the last time point” value (“MRTlast, mean residence time” below) ([1]; distal duodenum, dose replicate # 1) was 1.58 h, the “MRTlast, mean residence time” value ([1]; distal duodenum, dose replicate # 2) was 1.42 h and the “MRTlast, mean residence time” value ([1]; distal duodenum, dose replicate # 3) was 1.65 h. The “AUClast, area under the curve from time zero to the last time point” value [1, 4] was 770 ng·h/mL, the “Cmax, maximum concentration” value [1, 4] was 530 ng/mL and the “HLλz, elimination half life” value [1, 4] was 0.65 h. For the same substance, the “MRTlast, mean residence time” value [1, 4] was 1.55 h, the “Tmax, time to the maximum concentration” value [1, 4] was 1 h and the “Λz, elimination rate constant” value [1, 4] was 1.14 h⁻¹. For the same substance, the “MRTlast, mean residence time” value ([1]; proximal jejunum, dose replicate # 1) was 1.31 h, the “MRTlast, mean residence time” value ([1]; proximal jejunum, dose replicate # 2) was 1.26 h and the “MRTlast, mean residence time” value ([1]; proximal jejunum, dose replicate # 3) was 1.53 h. For the same substance, the “AUClast, area under the curve from time zero to the last time point” value [1, 5] was 910 ng·h/mL, the “Cmax, maximum concentration” value [1, 5] was 780 ng/mL and the “HLλz, elimination half life” value [1, 5] was 0.76 h. For the same substance, the “MRTlast, mean residence time” value [1, 5] was 1.37 h, the “Tmax, time to the maximum concentration” value [1, 5] was 1 h and the “Λz, elimination rate constant” value [1, 5] was 1.0 h⁻¹. For the same substance, the “Concentrations in human plasma” value ([2]; all groups administered 0.25, 1, 4 and 8 mg LA, below the LOQ) was under 0.5 ng/mL, the Plasma concentrations ([2]; human plasma, oral LA (12mg), HPLC-MS/MS, all below LLOQ) was under 0.5 ng/mL and the level at time molar at 1 h [3, 6] was 0.74 ± 0.3 µM. It also gave a level at time molar at 2 h [3, 6] of 0.27 ± 0.14 µM, a level at time molar at 3 h [3, 6] of 0.12 ± 0.09 µM and a level at time molar at 4 h [3, 6] of 0.03 ± 0.01 µM. For the same substance, the level at time molar at 1 h [3, 7] was 1.1 ± 0.48 µM, the level at time molar at 2 h [3, 7] was 0.25 ± 0.13 µM and the level at time molar at 3 h [3, 7] was 0.09 ± 0.1 µM. The level at time molar at 4 h [3, 7] was 0.03 ± 0.04 µM, the level at time molar at 1 h [3, 8] was 0.74 µM and the level at time molar at 2 h [3, 8] was 0.27 µM. It also gave a level at time molar at 3 h [3, 8] of 0.12 µM, a level at time molar at 4 h [3, 8] of 0.03 µM and a level at time molar at 1 h ([3]; intestinal fluid, distal duodenum, LA concentration (µM), oral 1 mg LA human clinical formulation, 1h, case number 1, single measurement) of 0.32 µM. For the same substance, the level at time molar at 1 h ([3]; intestinal fluid, distal duodenum, LA concentration (µM), oral 1 mg LA human clinical formulation, 1h, case number 2, single measurement) was 0.98 µM, the level at time molar at 1 h ([3]; intestinal fluid, distal duodenum, LA concentration (µM), oral 1 mg LA human clinical formulation, 1h, case number 3, single measurement) was 0.93 µM and the level at time molar at 2 h ([3]; intestinal fluid, distal duodenum, LA concentration (µM), oral 1 mg LA human clinical formulation, 2h, case number 1, single measurement) was 0.14 µM. For the same substance, the level at time molar at 2 h ([3]; intestinal fluid, distal duodenum, LA concentration (µM), oral 1 mg LA human clinical formulation, 2h, case number 2, single measurement) was 0.21 µM, the level at time molar at 2 h ([3]; intestinal fluid, distal duodenum, LA concentration (µM), oral 1 mg LA human clinical formulation, 2h, case number 3, single measurement) was 0.47 µM and the level at time molar at 3 h ([3]; intestinal fluid, distal duodenum, LA concentration (µM), oral 1 mg LA human clinical formulation, 3h, case number 1, single measurement) was 0.03 µM. The level at time molar at 3 h ([3]; intestinal fluid, distal duodenum, LA concentration (µM), oral 1 mg LA human clinical formulation, 3h, case number 2, single measurement) was 0.09 µM, the level at time molar at 3 h ([3]; intestinal fluid, distal duodenum, LA concentration (µM), oral 1 mg LA human clinical formulation, 3h, case number 3, single measurement) was 0.25 µM and the level at time molar at 4 h ([3]; intestinal fluid, distal duodenum, LA concentration (µM), oral 1 mg LA human clinical formulation, 4h, case number 1, single measurement) was 0.03 µM. The level at time molar at 4 h ([3]; intestinal fluid, distal duodenum, LA concentration (µM), oral 1 mg LA human clinical formulation, 4h, case number 2, single measurement) was 0.02 µM, the level at time molar at 4 h ([3]; intestinal fluid, distal duodenum, LA concentration (µM), oral 1 mg LA human clinical formulation, 4h, case number 3, single measurement) was 0.03 µM and the level at time molar at 1 h [3, 9] was 1.1 µM. For the same substance, the level at time molar at 2 h [3, 9] was 0.25 µM, the level at time molar at 3 h [3, 9] was 0.09 µM and the level at time molar at 4 h [3, 9] was 0.03 µM. For the same substance, the level at time molar at 1 h ([3]; intestinal fluid, proximal jejunum, LA concentration (µM), oral 1 mg LA human clinical formulation, 1h, case number 1, single measurement) was 0.65 µM, the level at time molar at 1 h ([3]; intestinal fluid, proximal jejunum, LA concentration (µM), oral 1 mg LA human clinical formulation, 1h, case number 2, single measurement) was 1.76 µM and the level at time molar at 1 h ([3]; intestinal fluid, proximal jejunum, LA concentration (µM), oral 1 mg LA human clinical formulation, 1h, case number 3, single measurement) was 0.88 µM. The level at time molar at 2 h ([3]; intestinal fluid, proximal jejunum, LA concentration (µM), oral 1 mg LA human clinical formulation, 2h, case number 1, single measurement) was 0.13 µM, the level at time molar at 2 h ([3]; intestinal fluid, proximal jejunum, LA concentration (µM), oral 1 mg LA human clinical formulation, 2h, case number 2, single measurement) was 0.18 µM and the level at time molar at 2 h ([3]; intestinal fluid, proximal jejunum, LA concentration (µM), oral 1 mg LA human clinical formulation, 2h, case number 3, single measurement) was 0.43 µM. The level at time molar at 3 h ([3]; intestinal fluid, proximal jejunum, LA concentration (µM), oral 1 mg LA human clinical formulation, 3h, case number 1, single measurement) was 0.04 µM, the level at time molar at 3 h ([3]; intestinal fluid, proximal jejunum, LA concentration (µM), oral 1 mg LA human clinical formulation, 3h, case number 3, single measurement) was 0.22 µM and the level at time molar at 4 h ([3]; intestinal fluid, proximal jejunum, LA concentration (µM), oral 1 mg LA human clinical formulation, 4h, case number 2, single measurement) was 0.09 µM. The “Continued presence of LA, concentration in proximal jejunum” value ([3]; fasted, oral 1 mg LA clinical formulation, proximal jejunum, 2–4 hours, range of individual samples) was 0.00 to 0.43 µM, the “LA concentration” value ([3]; oral 1 mg LA human clinical formulation, proximal jejunum, 0h, case number 2, single measurement) was 0.00 µM and the “LA concentration” value ([3]; oral 1 mg LA human clinical formulation, proximal jejunum, 0h, case number 3, single measurement) was 0.00 µM. The “LA concentration” value ([3]; oral 1 mg LA human clinical formulation, proximal jejunum, 3h, case number 2, single measurement, below LOD reported as zero) was 0.00 µM, the “LA concentration” value ([3]; oral 1 mg LA human clinical formulation, proximal jejunum, 4h, case number 1, single measurement, below LOD reported as zero) was 0.00 µM and the “LA concentration” value ([3]; oral 1 mg LA human clinical formulation, proximal jejunum, 4h, case number 3, single measurement, below LOD reported as zero) was 0.00 µM.

In the case of H-GGVLVQP-OH [Fragment 3], the “Concentration of LA fragments in duodenal and jejunal samples” value (“Concentration of LA fragments” for short) [3] is reported as under 150 nM.

In the case of H-GVLVQPG-OH [Fragment 1], the “Concentration of LA fragments” value [3] is reported as under 150 nM.

For H-VLVQPG-OH [Fragment 2], the “Concentration of LA fragments” value [3] was under 160 nM.

In the case of H-Val-Leu-Val-Gln-Pro-OH [Fragment 4], the “Concentration of LA fragments” value [3] is reported as under 170 nM.

From article PMC8041193 (PLoS ONE, 2021)
